# Source: EP2752664A1, “Label-free method for the detection of analytes” (priority 2013, dated 2014)
# Read-outs that look alike come from different tables or passages of the source.
# How the values were obtained:
# [1] = biological target: T1, mannose/Concanavalin A interaction (Canavalia ensiformis, UniProt P02866); test: Inhibition competition assay with hydrogel particles, surface energy read out via RICM (SCP-RICM, inventive method); format: binding; conditions: for IC50: read-out: IC50 value determined using an inventive method
# [2] = biological target: T1, mannose/Concanavalin A interaction; conditions: SPR measurements reported earlier; PAA Man values normalized per mannose; read-out: IC50 value determined using SPR inhibition assay; cited from earlier work
compound,measurement,setting,value
CO[C@H]1O[C@H](CO)[C@@H](O)[C@H](O)[C@@H]1O [α-methyl-D-mannose],contact areas of functionalized hydrogel particles and surface energies,[1]; 10 mM analyte added into the measurement cell (critical level of competitive analyte),completely vanish
same,surface energy,"[1]; analyte at lower concentrations up to 5 mM, particles still in contact with the carrier surface",gradually decreases with the concentration of added analyte
same,IC50,[1]; inverted system: PEG-ConA particles against a mannose functionalized surface (Fig. 7b),649 ± 76.8 µM
same,IC50,"[1]; mannose functionalized hydrogel particles, ConA immobilized on the solid carrier (Fig. 7a), Hill fit of normalized surface energy, PAA Man values normalized per mannose",618 ± 19.1 µM
same,IC50,[2],750 µM
